Reference: the supplement of paper PMC10307832

Legend:
Assay in all cases: relative viability (nuclei count vs DMSO), 5 days (fraction); higher = more cells survive
[1] = compound: CN(C)C[C@@H]1CCn2cc(c3ccccc32)C2=C(C(=O)NC2=O)c2cn(c3ccccc23)CCO1 [Ruboxistaurin] + N=C(N)NC(=N)NCCc1ccccc1 [Phenformin] (partner 250 µM)
Procedure, shortened: (§1)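 One day after seeding in 1536-well plates, lung cancer cell lines were dosed by pin tool. Dosing was either single-drug or a fixed anchor-drug dose plus five library-drug doses (not always all listed) in √10 steps. After 5 days, nuclei were stained in one fix-and-stain step and counted on 4× images, and relative viability is the nuclei count of treated wells over that of vehicle wells, given as the median of duplicate plates.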

[2] = compound: CN(C)C[C@@H]1CCn2cc(c3ccccc32)C2=C(C(=O)NC2=O)c2cn(c3ccccc23)CCO1 [Ruboxistaurin] + CC(C)C[C@H](NC(=O)[C@H](Cc1ccccc1)NC(=O)c1cnccn1)B(O)O [Bortezomib] (partner 0.002 µM)
Procedure, shortened: as §1

[3] = compound: CN(C)C[C@@H]1CCn2cc(c3ccccc32)C2=C(C(=O)NC2=O)c2cn(c3ccccc23)CCO1 [Ruboxistaurin] + Cc1cc(Nc2cc(N3CCN(C)CC3)nc(Sc3ccc(NC(=O)C4CC4)cc3)n2)n[nH]1 [Tozasertib] (partner 0.1 µM)
Procedure, shortened: as §1

[4] = compound: CN(C)C[C@@H]1CCn2cc(c3ccccc32)C2=C(C(=O)NC2=O)c2cn(c3ccccc23)CCO1 [Ruboxistaurin] + C[C@]1(O)C[C@@H](c2nc(-c3ccc4ccc(-c5ccccc5)nc4c3)c3c(N)nccn32)C1 [Linsitinib] (partner 1 µM)
Procedure, shortened: as §1

[5] = compound: CN(C)C[C@@H]1CCn2cc(c3ccccc32)C2=C(C(=O)NC2=O)c2cn(c3ccccc23)CCO1 [Ruboxistaurin] + Nc1nc2[nH]cc(CCc3ccc(C(=O)N[C@@H](CCC(=O)O)C(=O)O)cc3)c2c(=O)[nH]1 [Pemetrexed] (partner 0.2 µM)
Procedure, shortened: as §1

Cell Line	relative viability ([1]; first compound 0.08 µM)	relative viability ([1]; first compound 0.8 µM)	relative viability ([1]; first compound 2.53 µM)	relative viability ([1]; first compound 8 µM)	relative viability ([2]; first compound 0.08 µM)	relative viability ([2]; first compound 0.8 µM)	relative viability ([2]; first compound 2.53 µM)	relative viability ([2]; first compound 8 µM)	relative viability ([3]; first compound 0.08 µM)	relative viability ([3]; first compound 0.8 µM)	relative viability ([3]; first compound 2.53 µM)	relative viability ([3]; first compound 8 µM)	relative viability ([4]; first compound 0.08 µM)	relative viability ([4]; first compound 0.8 µM)	relative viability ([4]; first compound 2.53 µM)	relative viability ([4]; first compound 8 µM)	relative viability ([5]; first compound 0.08 µM)	relative viability ([5]; first compound 0.8 µM)	relative viability ([5]; first compound 2.53 µM)	relative viability ([5]; first compound 8 µM)
NCI-H322M	0.838	0.67	0.656	0.455	1.2	1.16	1.16	1.28	0.49	0.426	0.431	0.346	0.969	0.826	0.861	0.779	0.646	0.528	0.596	0.47
NCI-H1651	0.342	0.312	0.332	0.319	0.975	0.877	0.942	0.958	0.922	0.639	0.8	0.521	1.04	0.897	0.93	0.85	0.612	0.586	0.585	0.528
HARA	0.493	0.404	0.535	0.475	1.22	1.04	1.15	0.465	0.0939	0.101	0.12	0.102	1.15	0.922	1.08	0.657	0.262	0.297	0.236	0.248
H3255	0.354	0.326	0.345	0.352	0.854	0.844	0.869	0.732	0.658	0.603	0.714	0.836	1.09	0.953	0.943	0.931	0.595	0.556	0.614	0.534
NCI-H441	0.942	0.886	0.867	0.862	0.636	0.296	0.431	0.448	0.663	0.594	0.638	0.554	0.633	0.508	0.495	0.458	0.254	0.307	0.287	0.278
CAL-12T	0.597	0.585	0.568	0.563	1.12	0.981	1.06	1.11	0.371	0.292	0.301	0.211	0.884	0.679	0.897	0.927	1.35	1.19	1.12	1.28
NCI-H1437	0.328	0.278	0.298	0.322	0.64	0.461	0.526	0.516	0.434	0.365	0.378	0.417	1.01	0.941	1.17	0.746	0.309	0.299	0.315	0.313
HOP-62	0.681	0.65	0.704	0.839	0.736	0.536	0.734	0.642	0.362	0.299	0.352	0.424	0.972	0.963	0.869	1	0.299	0.241	0.298	0.31
EPLC-272H	0.338	0.301	0.297	0.349	1.04	0.691	1.01	1.01	0.205	0.247	0.253	0.247	1.28	1.09	1.2	1.16	0.32	0.359	0.352	0.325
COR-L 105	0.599	0.436	0.446	0.4	0.906	0.651	0.823	0.685	0.385	0.367	0.304	0.254	1.17	0.75	0.78	0.696	1.3	0.912	1.05	1.26
HCC-366	0.666	0.572	0.629	0.664	1.05	1.05	1.05	0.986	0.0941	0.0617	0.084	0.0522	0.691	0.526	0.68	0.33	0.181	0.182	0.158	0.209
HCC-44	0.204	0.193	0.185	0.19	0.956	0.868	0.983	0.969	1.05	0.919	1.1	1.09	0.643	0.645	0.674	0.635	0.666	0.556	0.642	0.638
NCI-H2009	0.579	0.442	0.536	0.502	1.04	0.941	1.14	1.41	0.765	0.678	0.768	0.473	1.18	1.14	1.18	1.23	1.05	1.08	1.02	1.07
NCI-H23	0.766	0.781	0.819	0.852	1.2	0.871	1.01	0.929	0.446	0.304	0.357	0.368	0.627	0.402	0.544	0.484	0.73	0.541	0.666	0.45
NCI-H1355	0.472	0.39	0.468	0.451	1.19	1.21	1.18	1.16	0.529	0.485	0.484	0.38	0.904	0.753	0.728	0.658	1.08	1	1.02	1.02
NCI-H2023	0.448	0.388	0.445	0.383	1.1	0.898	1.06	0.819	0.327	0.256	0.207	0.181	0.721	0.53	0.616	0.492	0.228	0.188	0.224	0.151
NCI-H2087	0.494	0.409	0.481	0.472	0.794	0.615	0.798	1.04	0.234	0.192	0.241	0.159	1.13	0.874	0.98	0.884	0.641	0.679	0.662	0.693
NCI-H838	0.628	0.467	0.592	0.454	0.876	0.772	1.09	0.618	0.28	0.246	0.287	0.292	1.09	0.91	1.02	0.744	0.248	0.222	0.222	0.225
LC-2-ad	0.621	0.574	0.615	0.572	1.17	0.929	1.15	1.06	0.55	0.45	0.476	0.475	0.931	0.862	0.912	0.742	0.259	0.284	0.285	0.282
HCC-78	0.691	0.906	0.779	0.739	0.711	0.427	0.618	0.397	0.368	0.352	0.321	0.393	0.531	0.501	0.455	0.482	0.85	0.91	0.828	0.945
LOU-NH91	0.827	0.666	0.722	0.751	0.475	0.473	0.443	0.457	0.744	0.509	0.674	0.76	1.11	0.902	0.994	0.883	0.398	0.405	0.407	0.434
NCI-H1734	0.495	0.342	0.406	0.323	1.01	0.781	1.06	0.816	0.282	0.224	0.249	0.243	0.964	0.815	0.806	0.666	0.425	0.394	0.4	0.4
NCI-H520	0.766	0.54	0.599	0.393	0.856	0.66	0.806	0.423	0.477	0.456	0.398	0.456	0.991	0.998	0.985	1.12	0.666	0.506	0.532	0.494
UMC-11	0.321	0.33	0.315	0.354	0.725	0.667	0.691	0.564	0.203	0.211	0.248	0.177	0.976	0.884	0.987	0.642	0.823	0.721	0.688	0.606
NCI-H596	0.844	0.77	0.841	0.722	0.978	0.443	0.932	1	0.932	0.8	0.729	0.889	1.14	1.01	1.08	0.857	0.542	0.473	0.478	0.444
NCI-H1755	0.678	0.584	0.586	0.635	0.976	0.945	0.979	1.02	0.608	0.55	0.555	0.525	1.04	0.976	0.973	0.879	0.452	0.476	0.35	0.471
